In ChEMBL document CHEMBL1141760, “Polyhydroxylated spirostanol saponins from the tubers of Dioscorea polygonoides” (J Nat Prod, 2005):

Experiments:
[1] = system: HL-60; test: Cytotoxicity against human HL60 cells by MTT assay; assay type: functional, cell-based
[2] = system: HSC-2; test: Cytotoxicity against human HSC2 cells by MTT assay; assay type: functional, cell-based

| SMILES | IC50 [1] [µM] | IC50 [2] [µM] |
| --- | --- | --- |
| C[C@@H]1O[C@@H](O[C@H]2[C@H](O[C@H]3CC[C@@]4(C)C(=CC[C@H]5[C@@H]6C[C@@H]7O[C@@]8(OC[C@H](C)[C@@H](O)[C@@H]8O)[C@@H](C)[C@@H]7[C@@]6(C)CC[C@@H]54)C3)O[C@H](CO)[C@@H](O)[C@@H]2O)[C@H](O)[C@H](O)[C@H]1O | > 200 | > 200 |
| C[C@H]1CO[C@@]2(O[C@H]3C[C@H]4[C@@H]5CC=C6C[C@@H](O[C@@H]7O[C@H](CO)[C@@H](O)[C@H](O)[C@H]7O[C@@H]7O[C@@H](C)[C@H](O)[C@@H](O)[C@H]7O)CC[C@]6(C)[C@H]5C[C@H](O)[C@]4(C)[C@@]3(O)[C@@H]2C)[C@@H](O)C1 | > 200 | > 200 |
| C[C@H]1CO[C@@]2(O[C@H]3C[C@@]4(O)[C@@H]5CC=C6C[C@@H](O)CC[C@]6(C)[C@H]5CC[C@]4(C)[C@@]3(O)[C@@H]2C)[C@@H](O)C1 | > 200 | > 200 |
| C[C@H]1CO[C@@]2(O[C@H]3C[C@@]4(O)[C@@H]5CC=C6C[C@@H](O[C@@H]7O[C@H](CO)[C@@H](O)[C@H](O)[C@H]7O[C@@H]7O[C@@H](C)[C@H](O)[C@@H](O)[C@H]7O)CC[C@]6(C)[C@H]5CC[C@]4(C)[C@@]3(O)[C@@H]2C)[C@@H](O)C1 | > 200 | > 200 |
| C[C@H]1CO[C@@]2(O[C@H]3C[C@H]4[C@@H]5CC=C6C[C@@H](O)CC[C@]6(C)[C@H]5C[C@H](O)[C@]4(C)[C@@]3(O)[C@@H]2C)[C@@H](O)C1 | > 200 | > 200 |
